According to patent US20200031785A1, “METHODS FOR TREATING CHRONIC PAIN AND OPIOID DEPENDENCE USING ADENYLYL CYCLASE INHIBITORS” (Purdue Research Foundation, priority 2017, published 2020):
Read-outs that look alike come from different tables or passages of the source.

Key:
AC1-HEK cells [1] = test system: AC1-HEK cells
hAC1 = biological target: T1, hAC1 (Homo sapiens, UniProt Q08828); assay: Cyclic AMP accumulation in HEK cells stably expressing AC1, stimulated with A23187 (HTRF); type: cell-based; details: for Selectivity AC1 vs AC8: AC8 IC50/AC1 IC50, in the absence of AC8 IC50, estimate based on IC50 ≥30 μM; for hAC1 % Inhib. / IC50: stable HEK cell line, A23187-stimulated cAMP accumulation, n ≥ 3; for IC50: read-out: hAC1 IC50
T1 construct: expressed in transfected cells
T1 sequence (Q08828 whole entry): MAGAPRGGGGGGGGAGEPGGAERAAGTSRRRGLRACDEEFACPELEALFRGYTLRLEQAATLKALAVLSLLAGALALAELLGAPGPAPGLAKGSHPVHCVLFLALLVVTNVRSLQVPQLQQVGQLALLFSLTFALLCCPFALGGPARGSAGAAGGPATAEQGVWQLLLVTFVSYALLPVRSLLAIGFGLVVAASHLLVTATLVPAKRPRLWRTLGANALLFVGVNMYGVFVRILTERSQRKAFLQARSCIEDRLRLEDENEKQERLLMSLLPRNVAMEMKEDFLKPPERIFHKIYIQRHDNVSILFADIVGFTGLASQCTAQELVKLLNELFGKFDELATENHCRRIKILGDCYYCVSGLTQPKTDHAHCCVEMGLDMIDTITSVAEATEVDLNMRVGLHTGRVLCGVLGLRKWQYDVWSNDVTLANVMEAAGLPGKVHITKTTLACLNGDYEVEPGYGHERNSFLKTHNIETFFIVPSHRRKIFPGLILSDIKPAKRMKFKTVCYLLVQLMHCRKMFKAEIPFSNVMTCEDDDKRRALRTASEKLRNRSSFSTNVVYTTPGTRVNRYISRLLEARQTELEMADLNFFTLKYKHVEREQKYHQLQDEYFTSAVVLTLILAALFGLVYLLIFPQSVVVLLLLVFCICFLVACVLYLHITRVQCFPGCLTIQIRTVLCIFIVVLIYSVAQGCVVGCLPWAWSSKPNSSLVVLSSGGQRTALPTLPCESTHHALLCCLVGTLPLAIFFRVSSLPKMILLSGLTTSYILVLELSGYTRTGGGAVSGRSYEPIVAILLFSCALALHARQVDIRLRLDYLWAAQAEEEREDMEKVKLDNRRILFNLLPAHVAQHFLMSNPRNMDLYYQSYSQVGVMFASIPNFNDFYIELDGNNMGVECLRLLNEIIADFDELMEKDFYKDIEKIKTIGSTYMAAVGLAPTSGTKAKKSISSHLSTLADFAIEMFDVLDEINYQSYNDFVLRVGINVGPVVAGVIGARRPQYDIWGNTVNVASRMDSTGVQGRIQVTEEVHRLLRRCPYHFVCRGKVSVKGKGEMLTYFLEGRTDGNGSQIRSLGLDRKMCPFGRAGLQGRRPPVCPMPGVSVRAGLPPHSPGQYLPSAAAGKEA

hAC2 [2] = biological target: T2, hAC2 (Homo sapiens, UniProt Q08462); assay: Cyclic AMP accumulation in stable HEK-AC2 cells, stimulated with 100 nM PMA; type: cell-based; details: % inhibition at 30 μM, 100 nM PMA-stimulated, negative = potentiated response, n = 2
T2 construct: expressed in transfected cells
T2 sequence (Q08462 whole entry): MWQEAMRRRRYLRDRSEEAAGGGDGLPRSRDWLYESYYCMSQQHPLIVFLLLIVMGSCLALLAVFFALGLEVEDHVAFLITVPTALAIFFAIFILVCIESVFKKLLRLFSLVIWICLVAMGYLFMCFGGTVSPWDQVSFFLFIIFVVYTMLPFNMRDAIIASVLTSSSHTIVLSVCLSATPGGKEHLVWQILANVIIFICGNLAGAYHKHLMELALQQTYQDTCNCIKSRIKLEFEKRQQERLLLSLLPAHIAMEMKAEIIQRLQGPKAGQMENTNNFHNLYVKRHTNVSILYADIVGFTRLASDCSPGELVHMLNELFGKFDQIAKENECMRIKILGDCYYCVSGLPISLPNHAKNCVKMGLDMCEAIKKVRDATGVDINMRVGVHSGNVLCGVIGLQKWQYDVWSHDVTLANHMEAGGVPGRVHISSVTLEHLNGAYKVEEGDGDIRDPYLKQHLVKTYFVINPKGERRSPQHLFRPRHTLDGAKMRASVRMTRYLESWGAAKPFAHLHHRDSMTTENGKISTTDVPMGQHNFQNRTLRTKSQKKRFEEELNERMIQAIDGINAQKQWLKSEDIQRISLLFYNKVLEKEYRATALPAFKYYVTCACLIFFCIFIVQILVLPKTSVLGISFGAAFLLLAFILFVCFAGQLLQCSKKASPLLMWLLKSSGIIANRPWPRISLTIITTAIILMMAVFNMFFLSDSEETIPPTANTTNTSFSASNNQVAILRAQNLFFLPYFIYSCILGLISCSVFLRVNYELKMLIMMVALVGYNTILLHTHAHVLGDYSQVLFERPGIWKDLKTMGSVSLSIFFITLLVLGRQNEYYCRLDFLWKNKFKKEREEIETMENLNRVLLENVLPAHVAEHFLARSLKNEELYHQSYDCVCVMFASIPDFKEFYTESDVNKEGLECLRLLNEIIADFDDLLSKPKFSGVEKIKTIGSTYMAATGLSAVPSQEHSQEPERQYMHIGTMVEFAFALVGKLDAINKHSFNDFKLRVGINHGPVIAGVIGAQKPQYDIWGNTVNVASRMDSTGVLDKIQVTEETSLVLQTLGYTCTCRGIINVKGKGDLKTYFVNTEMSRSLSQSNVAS
Description: (§1) Cyclic AMP accumulation was measured as previously described (Brust, et al., J. Pharmacol. Exp. Ther. 352, 480-493(2015)). Briefly, cryopreserved cells were thawed, resuspended in optiMEM (Life Technologies), and plated in white, flat bottom, low-volume, tissue culture-treated 384 well plates (PerkinElmer, Shelton, Conn.). Plates with cells were incubated in a 37° C. humidified incubator for 1 h. Inhibitors were added and plates were incubated at room temperature for 30 min followed by the addition of AC stimulants in the presence of 500 μM IBMX. Cells were incubated at room temperature for 1 h and cAMP accumulation was measured using Cisbio's cAMP kit (Cisbio Bioassays, Bedford, Mass.) according to the manufacturer's instructions.

hAC8 = biological target: T3, hAC8 (Homo sapiens, UniProt P40145); assay: Cyclic AMP accumulation in HEK cells stably expressing AC8, stimulated with A23187 (HTRF); type: cell-based; details: for hAC8 % Inhib.: % inhibition at 30 μM (negative values indicate a potentiated response); for IC50: stable HEK cell line, A23187-stimulated cAMP accumulation, n ≥ 3, read-out: hAC8 IC50
T3 construct: expressed in transfected cells
T3 sequence (P40145 whole entry): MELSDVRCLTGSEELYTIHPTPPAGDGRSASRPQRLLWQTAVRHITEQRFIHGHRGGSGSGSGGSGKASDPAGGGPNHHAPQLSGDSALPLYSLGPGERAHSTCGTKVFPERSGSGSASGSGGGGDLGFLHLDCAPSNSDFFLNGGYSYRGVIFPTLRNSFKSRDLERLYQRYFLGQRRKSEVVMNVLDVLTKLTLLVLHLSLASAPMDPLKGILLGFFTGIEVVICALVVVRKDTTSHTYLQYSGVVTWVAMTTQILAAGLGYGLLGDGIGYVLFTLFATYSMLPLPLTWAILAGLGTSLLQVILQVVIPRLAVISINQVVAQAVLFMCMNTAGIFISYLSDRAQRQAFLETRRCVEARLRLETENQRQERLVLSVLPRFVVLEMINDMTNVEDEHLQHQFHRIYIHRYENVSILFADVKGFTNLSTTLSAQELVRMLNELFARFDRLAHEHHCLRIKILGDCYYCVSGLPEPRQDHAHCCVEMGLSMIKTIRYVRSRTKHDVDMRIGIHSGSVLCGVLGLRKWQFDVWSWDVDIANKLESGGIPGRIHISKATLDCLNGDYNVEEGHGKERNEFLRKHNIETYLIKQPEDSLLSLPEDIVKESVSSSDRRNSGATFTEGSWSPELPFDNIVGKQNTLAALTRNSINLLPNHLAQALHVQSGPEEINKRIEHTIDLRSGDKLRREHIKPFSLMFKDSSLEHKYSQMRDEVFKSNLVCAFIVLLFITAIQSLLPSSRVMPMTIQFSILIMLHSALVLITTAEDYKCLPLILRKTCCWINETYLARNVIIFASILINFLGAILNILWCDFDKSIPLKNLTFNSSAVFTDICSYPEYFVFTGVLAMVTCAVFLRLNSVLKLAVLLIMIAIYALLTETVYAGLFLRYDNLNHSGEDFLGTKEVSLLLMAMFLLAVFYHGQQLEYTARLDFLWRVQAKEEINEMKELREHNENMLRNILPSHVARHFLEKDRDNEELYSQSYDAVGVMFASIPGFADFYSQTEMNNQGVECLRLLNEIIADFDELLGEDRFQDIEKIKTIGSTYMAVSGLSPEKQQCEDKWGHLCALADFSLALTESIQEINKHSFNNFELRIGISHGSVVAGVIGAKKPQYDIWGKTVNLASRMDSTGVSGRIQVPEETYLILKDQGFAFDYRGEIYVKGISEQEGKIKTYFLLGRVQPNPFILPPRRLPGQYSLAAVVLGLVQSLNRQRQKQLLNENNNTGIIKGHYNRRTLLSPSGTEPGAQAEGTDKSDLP

hAC5 [3] = biological target: T4, hAC5 (Homo sapiens, UniProt O95622); assay: Cyclic AMP accumulation in stable HEK-AC5 cells, stimulated with 300 nM forskolin; type: cell-based; details: % inhibition at 30 μM, 300 nM forskolin-stimulated, negative = potentiated response, n = 2
T4 construct: expressed in transfected cells
T4 sequence (O95622 whole entry): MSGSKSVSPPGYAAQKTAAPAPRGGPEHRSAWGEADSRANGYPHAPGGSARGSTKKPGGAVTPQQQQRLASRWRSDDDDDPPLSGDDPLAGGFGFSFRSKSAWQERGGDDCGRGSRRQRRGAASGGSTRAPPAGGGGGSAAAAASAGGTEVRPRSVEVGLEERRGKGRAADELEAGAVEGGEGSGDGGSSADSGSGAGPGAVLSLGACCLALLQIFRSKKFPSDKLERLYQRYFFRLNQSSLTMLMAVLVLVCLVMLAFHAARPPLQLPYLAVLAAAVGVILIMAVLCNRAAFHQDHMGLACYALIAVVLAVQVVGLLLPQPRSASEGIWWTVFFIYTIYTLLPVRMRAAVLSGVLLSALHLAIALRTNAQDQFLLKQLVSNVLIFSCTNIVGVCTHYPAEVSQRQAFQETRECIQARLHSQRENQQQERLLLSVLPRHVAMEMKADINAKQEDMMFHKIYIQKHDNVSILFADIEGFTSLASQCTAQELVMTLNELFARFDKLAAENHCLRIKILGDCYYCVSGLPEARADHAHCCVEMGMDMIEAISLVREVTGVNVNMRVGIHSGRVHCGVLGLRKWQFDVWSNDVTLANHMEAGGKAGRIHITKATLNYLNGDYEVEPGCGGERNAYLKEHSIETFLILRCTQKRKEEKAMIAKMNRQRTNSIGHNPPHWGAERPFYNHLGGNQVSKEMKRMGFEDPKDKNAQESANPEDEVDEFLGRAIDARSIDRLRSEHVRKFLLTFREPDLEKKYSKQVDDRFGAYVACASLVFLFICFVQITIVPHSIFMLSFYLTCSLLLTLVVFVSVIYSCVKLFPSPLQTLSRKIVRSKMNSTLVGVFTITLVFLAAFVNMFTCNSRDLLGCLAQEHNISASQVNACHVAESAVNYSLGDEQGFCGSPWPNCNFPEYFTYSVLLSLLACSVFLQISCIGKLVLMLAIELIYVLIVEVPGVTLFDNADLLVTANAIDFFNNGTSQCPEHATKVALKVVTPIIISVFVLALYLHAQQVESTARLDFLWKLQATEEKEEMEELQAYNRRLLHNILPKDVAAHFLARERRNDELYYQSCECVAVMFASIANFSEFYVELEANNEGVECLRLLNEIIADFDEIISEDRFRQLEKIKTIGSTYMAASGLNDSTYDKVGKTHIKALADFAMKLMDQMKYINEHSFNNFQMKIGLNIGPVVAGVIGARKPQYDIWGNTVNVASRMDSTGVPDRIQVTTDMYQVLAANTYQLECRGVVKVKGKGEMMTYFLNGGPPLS
Description: as §1

chronic pain responses = details: both mice and rats; cited from earlier work
hAC5 [4] = biological target: T4, hAC5; details: data from Brust et al. 2017; % inhibition at 30 μM, forskolin-stimulated, negative = potentiated; cited from earlier work
AC1-HEK cells [5] = details: data from Brust et al. 2017; cited from earlier work
hAC2 [6] = biological target: T2, hAC2; details: data from Brust et al. 2017; % inhibition at 30 μM, PMA-stimulated, negative = potentiated; cited from earlier work

| Selectivity AC1 vs AC8 (hAC1) | hAC1 % Inhib. (hAC1) | IC50 (hAC1) | hAC2 % Inhib. (hAC2 [2]) | hAC8 % Inhib. (hAC8) | IC50 (hAC8) | hAC5 % Inhib. (hAC5 [3]) | SMILES | Viability % Vehicle (AC1-HEK cells [1]) | effect on chronic pain responses (inflammatory and neuropathic) (chronic pain responses) | hAC5 % Inhib. (hAC5 [4]) | Viability % Vehicle (AC1-HEK cells [5]) | hAC2 % Inhib. (hAC2 [6]) |
| --- | --- | --- | --- | --- | --- | --- | --- | --- | --- | --- | --- | --- |
| >5-fold | 99 ± 1% | 5.9 ± 0.4 µM | −185% | 35 ± 8% | – | −21% | CSc1ccccc1C(=O)Nc1cc(C)nn1-c1nc2c(c(=O)[nH]1)CCC2 [F2215-0954] | 106 ± 14 % Vehicle | – | – | – | – |
| >30-fold | 100 ± 1% | 0.9 ± 0.2 µM | 32% | 34 ± 7% | – | 13% | CCc1c(C)nc(-n2nc(C)cc2NC(=O)c2ccco2)[nH]c1=O [F2215-0772] | 93 ± 1 % Vehicle | – | – | – | – |
| – | 99 ± 1% | 0.5 ± 0.1 µM | −70% | 20 ± 1% | – | 9% | CCc1cc(=O)[nH]c(-n2nc(C)cc2NC(=O)c2ccccc2F)n1 [F2215-0213] | 101 ± 17 % Vehicle | – | – | – | – |

More lines, now with the values behind:

| SMILES | Selectivity AC1 vs AC8 (hAC1) | hAC1 % Inhib. (hAC1) | IC50 (hAC1) | hAC2 % Inhib. (hAC2 [2]) | hAC8 % Inhib. (hAC8) | IC50 (hAC8) | hAC5 % Inhib. (hAC5 [3]) | Viability % Vehicle (AC1-HEK cells [1]) | effect on chronic pain responses (inflammatory and neuropathic) (chronic pain responses) | hAC5 % Inhib. (hAC5 [4]) | Viability % Vehicle (AC1-HEK cells [5]) | hAC2 % Inhib. (hAC2 [6]) |
| --- | --- | --- | --- | --- | --- | --- | --- | --- | --- | --- | --- | --- |
| O=C(Nc1nnc(-c2ccc3c(c2)OCCO3)o1)c1ccc(Br)cc1 [F0608-0011] | 9-fold | 101 ± 1% | 2 ± 0.2 µM | -7% | 79 ± 1% | 18 ± 2 µM | −10% | 125 ± 3 % Vehicle | – | – | – | – |
| CSc1cccc(C(=O)Nc2nnc(C3CCCCC3)o2)c1 [F2289-0107] | >4-fold | 99 ± 1% | 7.5 ± 2 µM | −210% | 31 ± 2% | – | -28% | 117 ± 1 % Vehicle | – | – | – | – |
| Nc1ncnc2c1ncn2CCNCCCCCO [NB001] | – | – | – | – | – | – | – | – | markedly attenuated chronic pain responses | – | – | – |
| O=C(Nc1nnc(-c2ccc3c(c2)CCCC3)o1)c1ccccc1 [F0608-0538] | 10-fold | 101 ± 1% | 2.1 ± 0.4 µM | -95% | 76 ± 8% | 21 ± 4 µM | −34% | 118 ± 6 % Vehicle | – | – | – | – |
| O=c1cc(C(Cl)(Cl)Cl)oc2ccc(Cl)cc12 [ST034307, 6-chloro-2-(trichloromethyl)-4H-chromen-4-one] | – | – | – | – | – | – | – | – | – | −44% | 85 ± 6 % Vehicle | −142% |
| CC1CC(C)CN(S(=O)(=O)c2ccc(C(=O)Nc3nnc(-c4cccs4)o3)cc2)C1 (stereo not shown) [F0559-0346] | 2-fold | 99 ± 1% | 9.1 ± 2 µM | −6% | 74 ± 13% | 17 ± 6 µM | 4% | 118 ± 2 % Vehicle | – | – | – | – |
